Assays:
[1] = tested on: erythropoietin gene expression; assay: Erythropoietin gene expression in liver and kidney by quantitative PCR (Example 2, Experiment I); format: in vivo, Swiss Webster male mice; conditions: mice, 200 mg/kg/day oral gavage twice daily 2.5 days (5 doses), 4 h after final dose, FIG. 2A
Experimental: Twelve Swiss Webster male mice (30-32 g) were obtained from Simonsen, Inc. (Gilroy Calif.), and treated by oral gavage two times per day for 2.5 days (5 doses) with a 4 ml/kg volume of either 0.5% carboxymethyl cellulose (CMC; Sigma-Aldrich, St. Louis Mo.) (0 mg/kg/day) or 2.5% Compound C (25 mg/ml in 0.5% CMC) (200 mg/kg/day). Four hours after the final dose, animals were anesthetized with isoflurane and two blood samples were collected from the abdominal vein. One blood sample was collected into a MICROTAINER serum separator tube (Becton-Dickinson, Franklin Lakes N.J.), and incubated at room temperature for 30 minutes, centrifuged at 8,000 rpm at 4° C. for 10 minutes. The serum fraction was then processed and analyzed for erythropoietin (EPO) expression using a QUANTIKINE immunoassay (R&D Systems) according to the manufacturer's instructions. […] Hematocrit was measured by drawing EDTA-blood into a 75 mm×1.1-12 mm I.D. capillary tube (Chase Scientific Glass, Inc., Rockwood Tenn.) to approximately ¾ length. […] Hematocrit was read against a reader card. […]
RNA isolation was carried out using the following protocol. […] The RNA was eluted into 80 μL of water and quantitated with RIBOGREEN reagent (Molecular Probes, Eugene Oreg.). […] The absorbance at 260 and 280 nm was measured to determine RNA purity and concentration. […]
The relative level of 18S ribosomal RNA gene expression was measured as a control. […]

[2] = Dose response in vivo: reticulocytes, hemoglobin, hematocrit (Example 3); set-up: species or system Sprague Dawley male rats; conditions: rats
Experimental: Twelve Sprague Dawley male rats (approx. 260 g) were obtained from Charles River Laboratories, Inc., and treated by oral gavage as follows: (1) Four rats were dosed daily for days 1 to 7 with 0.5% carboxymethyl cellulose (CMC; Sigma-Aldrich, St. Louis Mo.) (0 mg/kg), were not treated for days 8 to 14, and then were dosed daily for days 15 to 19 with 0.5% CMC (0 mg/kg); (2) four animals were treated on day 0 and day 3 with a total of 7 ml/kg/day of 5.0% compound C (50 mg/ml in 0.5% CMC) (350 mg/kg), were not treated days 8 to 14, and then were dosed daily for days 15 to 19 with 3% compound C: (30 mg/ml in 0.5% CMC) (60 mg/kg/day); and (3) four animals were treated daily for days 1 to 7 with a total volume of 4 ml/kg/day of 2.5% compound C (25 mg/ml in 0.5% CMC) (100 mg/kg), were not treated days 8 to 14, and then were dosed daily for days 15 to 19 with 3% compound C (60 mg/kg/day). Thus, groups (2) and (3) received a total of 700 mg compound/kg body weight over the first 7 days, no treatment from days 8 to 14, and then 60 mg/kg/day for another 5 days. Animals were monitored for change in body weight and signs of toxicity. Blood samples (2×0.5 ml) were collected on days 1, 3, 7, 10, 17 and 21 as follows. Animals were anesthetized with isoflurane and 0.5 ml of blood was collected from the tail vein of each animal into each of two MICROTAINER EDTA-2K tubes (Becton-Dickinson). Blood samples were processed for erythropoietin levels, hemoglobin, and hematocrit as described above.

SMILES: O=C(O)CNC(=O)c1nc(Cl)c2ccccc2c1O [Compound C, [(1-chloro-4-hydroxy-isoquinoline-3-carbonyl)-amino]-acetic acid]
- increase over background in EPO transcript level, kidney ([1]; relative to untreated kidney): approximately 580 fold
- increase over background in EPO transcript level, liver ([1]; relative to untreated liver): approximately 32 fold
- increase in hemoglobin and hematocrit with lower doses ([2]; 60 mg/kg/day days 15 to 19 after no treatment days 8 to 14): maintained over an extended period of time
- immature blood cells (reticulocytes) ([2]; oral gavage, total 700 mg/kg over first 7 days, FIG. 4B): subsequent increase
- blood hemoglobin levels ([2]; oral gavage, total 700 mg/kg over first 7 days, FIG. 4C): increased
- hematocrit ([2]; oral gavage, total 700 mg/kg over first 7 days, FIG. 4D): increased

From patent US20130203805A1, “Methods for treating anemia using inhibitors of hypoxia-inducible factor (HIF) hydroxylase” (FIBROGEN, INC., priority 2001, published 2013)
